Where “and” joins values, the source holds several entries; their conditions need not be identical. Equal entries are not always repeated. Entries after “also recorded” stand apart in the source; their conditions may differ. Structures can show the parent of a compound that is named as a salt. Where two headings read alike, the source gives them in different places.
Experiments:
[1] = Plasma concentration-time data and PK parameters after a PO dose of 10 mg/kg in female CD1 nude mice (Groups 1-5)
Experimental: (§1) Pharmacokinetic studies were performed in female CD-1 nude mice. —Either 10 or 50 mg/kg of each test article was administered PO, QD in 0.5% methylcellulose aqueous solution or suspension. […] Plasma concentrations were analyzed using a LC/MS method and the pharmacokinetic parameters computed using a noncompartmental method.

[2] = Dynamic vapor sorption (DVS); type: physicochemical; details: for form transformation after DVS test: XRPD after DVS; for hygroscopicity classification: according to DVS result; for DVS Sorption (%): weight gain from 0 to 80% RH, 25° C
Experimental: Transfer about 10 mg of sample into a DVS (DVS Advantage-1, SMS) and record the weight change with respect to the atmospheric humidity at 25° C. Use the following parameters: Equilibrium: dm/dt: 0.01%/min. (for min: 10 min and max: 180 min). Drying: 0% RH for 120 min RH (%) measurement step: 10%; RH (%) measurement step scope: 0-90-0%

[3] = Plasma concentration in female CD-1 nude mice, formulation groups A-C; type: in vivo; details: for concentration at 6 h: time point 6 h; for concentration at 6 h / concentration at 8 h: individual mouse; for concentration at 8 h: time point 8 h; for concentration at 24 h: group mean
Experimental: as §1

D423 cells = assay: Glioblastoma cellular assay D423; type: cell-based; details: various concentrations; FIG. 4
Source text: (§2) NB-1, Gli56, and D423 cell lines are deleted for ENO-1 (GLI56 and D423) or PGD, which renders them with reduced glycolytic capacity (Muller, F. et al., Nature, 2012, 488, 337-42).

NB-1 xenografts = assay: NB-1 xenograft model; type: in vivo, CD-1 nude mice; details: daily oral treatment with 10 mg/kg; FIG. 5
NB-1 cells = assay: Neuroblastoma cellular assay; type: cell-based; details: various concentrations
Source text: as §2

Gli56 cells = assay: Glioblastoma cellular assay Gli56; type: cell-based; details: various concentrations
Source text: as §2

TMD8 cells = assay: Diffuse large B-cell lymphoma (DLBCL) assay, viable cells; type: cell-based; details: varying concentrations, 7 days; Guava ViaCount; FIG. 1
Experimental: Equal number of TMD8 cells were plated and treated with varying concentrations of the compound of Example 80 for 7 days. Percent of viable cells was determined using Guava ViaCount reagents (EMD Millipore cat #4000-0040) that contains proprietary dyes that enable the determination of the number of live and dead cells in a sample (FIG. 1).

293T-HRE-GFP-luc cells = assay: Cell-based reporter assay for IC50 determinations; details: hypoxia for 6 hrs. (1% O2); luminescence; read-out: IC50 Classification
Experimental: IC50 values were calculated using a four-parameter logistic curve fit.

OCI-AML3 cells = assay: OCI-AML3 human leukemia model in NSG mice; type: in vivo, NSG nude mice; details: daily oral 10 mg/kg
Experimental: (§3) The OCI-AML3 cell line was treated with various concentrations of compound for 2 days and the percent of viable cells normalized to control cells treated with DMSO (FIG. 6). OCI-AML3 cells constitutively expressing luciferase were tail vein injected in NSG nude mice. 17 days after cell injection, luciferin was injected into animals and luciferase signal was measured using an IVIS imaging system to determine tumor burden and for randomization of subjects into study groups. On day 18, animals began receiving daily oral doses of vehicle or 10 mpk of the compound of Example 80 which continued throughout the study. On day 28, imaging was performed again to determine tumor burden (FIG. 7).

OCI-AML3 cell line = assay: Acute myeloid leukemia cell viability; type: cell-based; details: various concentrations, 2 days; normalized to DMSO; FIG. 6
Experimental: as §3

[4] = female, CD-1 nude, mouse, oral, read-out: Calc. Conc.
[5] = female, CD-1 nude, mouse, oral, read-out: Calc. Conc. (ng/mL)
[6] = time point 2 h, individual mice, PO, QD, 10 or 50 mg/kg, listed as C, methanesulfonate
[7] = time point <24, individual mouse
[8] = time point 2 h, individual mice, PO, QD, 10 or 50 mg/kg, listed as A
[9] = time point 24 h, individual mice, PO, QD, 10 or 50 mg/kg, listed as A
[10] = female, CD-1 nude, mouse, in vivo, po, 10 mg/kg
[11] = time point 2 h, individual mice, PO, QD, 10 or 50 mg/kg, 2,2,2-trifluoroacetate
[12] = time point 24 h, individual mice, PO, QD, 10 or 50 mg/kg, 2,2,2-trifluoroacetate

Cc1nc(-c2nc(-c3ccc(OC(F)(F)F)cc3)no2)nn1Cc1cccc(N2CCC(S(C)(=O)=O)CC2)c1.Cl [5-(5-methyl-1-(3-(4-(methylsulfonyl)piperidin-1-yl)benzyl)-1H-1,2,4-triazol-3-yl)-3-(4-(trifluoromethoxy)phenyl)-1,2,4-oxadiazole hydrochloride]
plasma concentrations compared with the free base ([1]; mouse, in vivo, po): significantly higher

CS(=O)(=O)O.Cc1nc(-c2nc(-c3ccc(OC(F)(F)F)cc3)no2)nn1Cc1cccc(N2CCC(S(C)(=O)=O)CC2)c1 [MESYLATE SALT, 1-(3-((5-methyl-3-(3-(4-(trifluoromethoxy)phenyl)-1,2,4-oxadiazol-5-yl)-1H-1,2,4-triazol-1-yl)methyl)phenyl)-4-(methylsulfonyl)piperidin-1-ium methanesulfonate]
form transformation after DVS test [2]: No form transformation was observed | hygroscopicity classification [2]: hygroscopic | DVS Sorption (%) [2]: 2.47% | concentration at 6 h [3, 4]: 2.95 µM | concentration at 6 h [3, 5]: 1660 ng/mL | concentration at 8 h [3, 4]: 2.91 µM | concentration at 8 h [3, 5]: 1640 ng/mL | concentration at 24 h ([3]; time point 2 h, PO, QD, 10 or 50 mg/kg): 2.2499 µM | Calc. Conc. (nM) [3, 6]: 2676.0 nM and 1457.7 nM and 2725.3 nM and 2248.5 nM and 2141.9 nM | Calc. Conc. (ng/mL) [3, 6]: 1504.5 ng/mL and 819.5 ng/mL and 1532.2 ng/mL and 1264.1 ng/mL and 1204.2 ng/mL | Calc. Conc. (nM) [3, 7]: 1469.8 nM | Calc. Conc. (ng/mL) [3, 7]: 826.3 ng/mL | oral bioavailability in comparison to the free base ([1]; mouse, in vivo, po): improved oral bioavailability | plasma concentrations compared with the free base ([1]; mouse, in vivo, po): significantly higher

Cc1nc(-c2nc(-c3ccc(OC(F)(F)F)cc3)no2)nn1Cc1cccc(N2CCC(S(C)(=O)=O)CC2)c1.O=C(O)C(F)(F)F [5-(5-methyl-1-(3-(4-(methylsulfonyl)piperidin-1-yl)benzyl)-1H-1,2,4-triazol-3-yl)-3-(4-(trifluoromethoxy)phenyl)-1,2,4-oxadiazole 2,2,2-trifluoroacetate]
plasma concentrations compared with the free base ([1]; CD-1 mice, PO): significantly higher

Cc1nc(-c2nc(-c3ccc(OC(F)(F)F)cc3)no2)nn1Cc1cccc(N2CCC(S(C)(=O)=O)CC2)c1.O=S(=O)(O)c1ccccc1 [BESYLATE SALT, 1-(3-((5-methyl-3-(3-(4-(trifluoromethoxy)phenyl)-1,2,4-oxadiazol-5-yl)-1H-1,2,4-triazol-1-yl)methyl)phenyl)-4-(methylsulfonyl)piperidin-1-ium benzenesulfonate]
oral bioavailability in comparison to the free base ([1]; mouse, in vivo, po): improved oral bioavailability | plasma concentrations compared with the free base ([1]; mouse, in vivo, po): significantly higher

Cc1nc(-c2nc(-c3ccc(OC(F)(F)F)cc3)no2)nn1Cc1cccc(N2CCC(S(C)(=O)=O)CC2)c1 [Example 80, 4-Methanesulfonyl-1-{3-[(5-methyl-3-{3-[4-(trifluoromethoxy)phenyl]-1,2,4-oxadiazol-5-yl}-1H-1,2,4-triazol-1-yl)methyl]phenyl}piperidine]
DVS Sorption (%) [2]: 0.16% | number of viable D423 cells (D423 cells): reduced number of viable cells; also recorded: cell numbers are significantly reduced | growth of NB-1 xenografts (tumor growth) (NB-1 xenografts): reduces the tumor growth | cell death in NB-1 cells (NB-1 cells): cell death readily apparent | number of viable NB-1 cells (NB-1 cells; FIG. 2): reduced number of viable cells; also recorded: cell numbers are significantly reduced | cell death in Gli56 cells (Gli56 cells): cell death readily apparent | number of viable Gli56 cells (Gli56 cells; FIG. 3): reduced number of viable cells; also recorded: cell numbers are significantly reduced | number/percent of viable TMD8 cells (TMD8 cells): reduced number of viable cells; also recorded: respond robustly | IC50 (293T-HRE-GFP-luc cells): < 0.1 µM | disease burden measured by IVIS imaging (OCI-AML3 cells; FIG. 7): reduces disease burden | survival (OCI-AML3 cells; relative to vehicle, FIG. 8, 10 mg/kg): extends survival; also recorded: significantly increased their survival | concentration at 24 h ([3]; female, CD-1 nude, mouse, oral, time point 24 h, PO, QD, 10 or 50 mg/kg): 0.414 µM | concentration at 24 h ([3]; time point 2 h, PO, QD, 10 or 50 mg/kg, listed as A): 0.5612 µM | Calc. Conc. (nM) [3, 8]: 591.7 nM and 510.0 nM and 285.4 nM and 657.3 nM and 761.7 nM | Calc. Conc. (ng/mL) [3, 8]: 332.7 ng/mL and 286.7 ng/mL and 160.4 ng/mL and 369.5 ng/mL and 428.2 ng/mL | Calc. Conc. (nM) [3, 9]: 987.2 nM and 307.2 nM and 342.7 nM and 233.3 nM and 201.3 nM | Calc. Conc. (ng/mL) [3, 9]: 555.0 ng/mL and 172.7 ng/mL and 192.7 ng/mL and 131.2 ng/mL and 113.1 ng/mL | AUCINF [1, 10]: 16.2 µM·h | AUClast [1, 10]: 12.1 µM·h | Cmax [1, 10]: 0.959 µM | Terminal t1/2 [1, 10]: 12.4 h | Concentration Mean ([1]; female, CD-1 nude, mouse, in vivo, po, 10 mg/kg, 0.083 hr): 0.0289 µM | Concentration Mean ([1]; female, CD-1 nude, mouse, in vivo, po, 10 mg/kg, 0.25 hr): 0.280 µM | Concentration Mean ([1]; female, CD-1 nude, mouse, in vivo, po, 10 mg/kg, 0.5 hr): 0.440 µM | number of viable OCI-AML3 cells (OCI-AML3 cell line): reduced number of viable cells

Cc1nc(-c2nc(-c3ccc(OC(F)(F)F)cc3)no2)nn1Cc1cccc(N2CCC(S(C)(=O)=O)CC2)c1 [B, 5-(5-methyl-1-(3-(4-(methylsulfonyl)piperidin-1-yl)benzyl)-1H-1,2,4-triazol-3-yl)-3-(4-(trifluoromethoxy)phenyl)-1,2,4-oxadiazole 2,2,2-trifluoroacetate]
concentration at 24 h ([3]; time point 2 h, PO, QD, 10 or 50 mg/kg, 2,2,2-trifluoroacetate): 0.8348 µM | Calc. Conc. (nM) [3, 11]: 1131.9 nM and 748.0 nM and 793.6 nM and 632.1 nM and 868.2 nM | Calc. Conc. (ng/mL) [3, 11]: 636.4 ng/mL and 420.5 ng/mL and 446.2 ng/mL and 355.4 ng/mL and 488.1 ng/mL | concentration at 24 h ([3]; time point 24 h, PO, QD, 10 or 50 mg/kg, 2,2,2-trifluoroacetate): 0.7764 µM | Calc. Conc. (nM) [3, 12]: 1426.5 nM and 220.7 nM and 1116.1 nM and 490.3 nM and 628.2 nM | Calc. Conc. (ng/mL) [3, 12]: 802.0 ng/mL and 124.1 ng/mL and 627.5 ng/mL and 275.6 ng/mL and 353.2 ng/mL

Cc1nc(-c2nc(-c3ccc(OC(F)(F)F)cc3)no2)nn1Cc1cccc(N2CCC(S(C)(=O)=O)CC2)c1 [HYDROCHLORIDE SALT, 5-(5-methyl-1-(3-(4-(methylsulfonyl)piperidin-1-yl)benzyl)-1H-1,2,4-triazol-3-yl)-3-(4-(trifluoromethoxy)phenyl)-1,2,4-oxadiazole hydrochloride]
form transformation after DVS test [2]: No form transformation was observed | hygroscopicity classification [2]: slightly hygroscopic | DVS Sorption (%) ([2]; listed as HCl, hydrochloride): 1.59% | DVS Sorption (%) ([2]; listed as hydrochloride candidate, hydrochloride): 1.59% | oral bioavailability in comparison to the free base ([1]; mouse, in vivo, po): improved oral bioavailability

Source: patent publication US10363248B2, “Salts of heterocyclic modulators of HIF activity for treatment of disease” (priority 2014, dated 2019)
